# Bridge positions count the residues as written; N and C are the ends. Square brackets hold non-standard residues; d marks the D form. Peptide text beside a SMILES is read from it. * marks the point of attachment. DO3A(CH2CH2SO2CH2CH2) = O=C(O)CN1CCN(CCS(=O)(=O)CC*)CCN(CC(=O)O)CCN(CC(=O)O)CC1; Ala(4-thiazolyl) = N[C@@H](Cc1cscn1)C(=O)O
# System: cynomolgus monkey GCGR
# Assay: functional cAMP assay in transfected HEK293 cells
# Assay type: cell-based
# Method: The same assay was performed for GLP-1R to assess cross-binding. Details of the assay procedure are described in Additional file 1 and have also been described elsewhere.
# cAMP content of cells was determined using a kit from Cisbio Corp. (cat. no. 62AM4PEJ) based on HTRF (Homogenous Time Resolved Fluorescence). For preparation, cells were split into T175 culture flasks and grown overnight to near confluency in medium (DMEM / 10% FBS). Medium was then removed and cells washed with PBS lacking calcium and magnesium, followed by proteinase treatment with accutase (Sigma-Aldrich cat. no. A6964). Detached cells were washed and resuspended in assay buffer (1 x HBSS; 20 mM HEPES, 0.1% BSA, 2 mM IBMX) and cellular density determined. They were then diluted to 400000 cells/ml and 25 µl-aliquots dispensed into the wells of 96-well plates. For measurement, 25 µl of test compound in assay buffer was added to the wells, followed by incubation for 30 minutes at room temperature.
compound,measurement,value
CC[C@H](C)[C@H](NC(=O)[C@H](Cc1ccccc1)NC(=O)[C@H](CCC(=O)O)NC(=O)[C@@H]1CCCCNC(=O)CC[C@H](NC(=O)[C@H](CC(=O)O)NC(=O)[C@H](CC(C)C)NC(=O)[C@H](CCC(N)=O)NC(=O)[C@H](CCCCN)NC(=O)[C@H](CO)NC(=O)[C@H](Cc2ccc(O)cc2)NC(=O)[C@H](CC(=O)O)NC(=O)[C@H](CO)NC(=O)[C@@H](NC(=O)[C@H](Cc2ccccc2)NC(=O)[C@@H](NC(=O)CNC(=O)[C@H](CCC(N)=O)NC(=O)[C@@H](CO)NC(=O)[C@@H](N)Cc2cscn2)[C@@H](C)O)[C@@H](C)O)C(=O)N[C@@H](CCC(N)=O)C(=O)N[C@@H](CCCNC(=N)N)C(=O)N[C@@H](C)C(=O)N1)C(=O)N[C@@H](CCC(=O)O)C(=O)N[C@@H](Cc1c[nH]c2ccccc12)C(=O)N[C@@H](CC(C)C)C(=O)N[C@@H](CC(C)C)C(=O)N[C@@H](C)C(=O)N[C@H](C(=O)NCC(=O)N1CCC[C@H]1C(=O)N[C@@H](CCC(=O)O)C(=O)N[C@@H](CO)C(=O)NCC(=O)N[C@@H](C)C(=O)N1CCC[C@H]1C(=O)N1CCC[C@H]1C(=O)N1CCC[C@H]1C(=O)N[C@@H](CO)C(=O)N[C@@H](CSCCS(=O)(=O)CCN1CCN(CC(=O)O)CCN(CC(=O)O)CCN(CC(=O)O)CC1)C(N)=O)[C@@H](C)O [DO3A-S01-GCG] (H-[Ala(4-thiazolyl)][dS]QGTFTSDYSKQLDEQRAKEFIEWLLATGPESGAPPPSC(DO3A(CH2CH2SO2CH2CH2))-NH2; lactam 16-20),EC50,1.2 pM
